Data as given in patent US20250353873A1, “COMPOUNDS AND METHODS FOR MODULATING APOE EXPRESSION” (Ionis Pharmaceuticals, Inc., priority 2024, published 2025).
Strand notation (5' to 3'): a small letter for the sugar, then the base; units joined by * are phosphorothioate-linked, units joined directly phosphodiester-linked; [ ] holds rarer units or linkages, { } end groups; capitals alone tell only the bases. [ms] = mesyl phosphoramidate linkage; e = 2'-O-(2-methoxyethyl) (MOE); k = constrained ethyl (cEt); [5mC] = 5-methylcytosine; d = 2'-deoxy (DNA)

Tests used:
[1] = tested on: human APOE RNA; test: Dose-dependent inhibition of human APOE RNA in HepG2 cells, electroporation, 50,000 cells per well, RT-PCR normalized to GAPDH (Example 4, Tables 8-10); assay type: cell-based; details: for APOE RNA (% UTC) 1,280 nM: 24-hour treatment, 1,280 nM; for APOE RNA (% UTC) 3,200 nM: 24-hour treatment, 3,200 nM; for APOE RNA (% UTC) 8,000 nM: 24-hour treatment, 8,000 nM; for APOE RNA (% UTC) 20,000 nM: 24-hour treatment, 20,000 nM
Outline: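 HepG2 cells, 50,000 per well, electroporated with modified oligonucleotide at various concentrations. APOE RNA quantified by RT-PCR with human primer probe set RTS3073, normalized to GAPDH. Values are percent APOE RNA relative to untreated control cells.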

[2] = tested on: human APOE RNA; test: Activity in APOE C57BL/6NTac-Apoeem7250 knock-in mice, single ICV bolus, 16 weeks (Example 12); assay type: in vivo; details: single ICV bolus 300 μg, 16 weeks post treatment, normalized to mouse Ppia
Outline: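 Knock-in mice (3-4 per group) received one ICV bolus of 300 μg oligonucleotide, PBS as control. After 16 weeks, human APOE RNA in cortex and spinal cord measured by RT-qPCR, normalized to mouse Ppia, and reported as % of PBS control.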

[3] = tested on: human APOE RNA; test: Activity in APOE C57BL/6NTac-Apoeem7250 knock-in mice, single ICV bolus, 4 weeks (Example 10); assay type: in vivo; details: single ICV bolus 300 μg, 4 weeks post treatment, normalized to mouse Ppia
Outline: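 Knock-in mice (2–4 per group) received one 300 μg ICV bolus of oligonucleotide or PBS. After four weeks, human APOE RNA in cortex and spinal cord measured by RT-qPCR (primer probe set RTS3073), normalized to mouse Ppia, expressed as % of PBS controls.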

[4] = tested on: human APOE RNA; test: Activity in APOE C57BL/6NTac-Apoeem7250 knock-in mice, single ICV bolus, 8 weeks (Example 11); assay type: in vivo; details: single ICV bolus 300 μg, 8 weeks post treatment, normalized to mouse Ppia
Outline: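 Human APOE knock-in C57BL/6NTac mice given one ICV bolus of 300 μg oligonucleotide; PBS-dosed group as control. At 8 weeks, cortex and spinal cord RNA measured by qRT-PCR (human probe RTS3073), normalized to mouse Ppia, expressed as % of PBS control.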

[5] = tested on: human APOE RNA; test: Activity in APOE C57BL/6NTac-Apoeem7250 knock-in mice, single ICV bolus, 20 weeks (Example 13); assay type: in vivo; details: single ICV bolus 300 μg, 20 weeks post treatment, normalized to mouse Ppia
Outline: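 Knock-in mice (n=4) given a single ICV bolus of 300 μg oligonucleotide, PBS as control. After 20 weeks, human APOE RNA in cortex and spinal cord measured by RT-qPCR, normalized to mouse Ppia, expressed as % of PBS-treated animals.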

[6] = HepG2 cells, electroporation, 24-hour treatment, 5 nM, Table 8
[7] = HepG2 cells, electroporation, 24-hour treatment, 13 nM, Table 8
[8] = HepG2 cells, electroporation, 24-hour treatment, 33 nM, Table 8
[9] = HepG2 cells, electroporation, 24-hour treatment, 82 nM, Table 8
[10] = HepG2 cells, electroporation, 24-hour treatment, 205 nM, Table 8
[11] = HepG2 cells, electroporation, 24-hour treatment, 512 nM, Table 8
[12] = HepG2 cells, electroporation, Table 8
[13] = reduction of human APOE RNA, HepG2 cells, electroporation, 24-hour treatment, Table 8
[14] = 5 nM, HepG2, electroporation, 16-hour treatment
[15] = 13 nM, HepG2, electroporation, 16-hour treatment
[16] = 33 nM, HepG2, electroporation, 16-hour treatment
[17] = 82 nM, HepG2, electroporation, 16-hour treatment
[18] = 205 nM, HepG2, electroporation, 16-hour treatment
[19] = 512 nM, HepG2, electroporation, 16-hour treatment
[20] = 1,280 nM, HepG2, electroporation, 16-hour treatment
[21] = 3,200 nM, HepG2, electroporation, 16-hour treatment
[22] = 8,000 nM, HepG2, electroporation, 16-hour treatment
[23] = 20,000 nM, HepG2, electroporation, 16-hour treatment
[24] = HepG2, electroporation, 16-hour treatment

Substance	APOE RNA (% UTC) 5 nM [1, 6] [% UTC]	APOE RNA (% UTC) 13 nM [1, 7] [% UTC]	APOE RNA (% UTC) 33 nM [1, 8] [% UTC]	APOE RNA (% UTC) 82 nM [1, 9] [% UTC]	APOE RNA (% UTC) 205 nM [1, 10] [% UTC]	APOE RNA (% UTC) 512 nM [1, 11] [% UTC]	APOE RNA (% UTC) 1,280 nM [1, 12] [% UTC]	APOE RNA (% UTC) 3,200 nM [1, 12] [% UTC]	APOE RNA (% UTC) 8,000 nM [1, 12] [% UTC]	APOE RNA (% UTC) 20,000 nM [1, 12] [% UTC]	IC50 [1, 13] [µM]	APOE RNA (% control) Cortex [2] [% control]	APOE RNA (% control) Spinal Cord [2] [% control]	APOE RNA (% control) Cortex [3] [% control]	APOE RNA (% control) Spinal Cord [3] [% control]	APOE RNA (% control) Cortex [4] [% control]	APOE RNA (% control) Spinal Cord [4] [% control]	APOE RNA (% control) Cortex [5] [% control]	APOE RNA (% control) Spinal Cord [5] [% control]	further results
1785601: modified oligonucleotide complementary to human APOE RNA (k[5mC]*kT*kT*dG[ms]dG[ms]dT[ms]dG*dA[ms]dA[ms]dT*d[5mC]*dT*dT*dT*dA[ms]dT*kT*kA*dA[ms]kA; antisense) [compound 1785601]	111	115	101	75	63	36	25	15	16	10	0.38	39	21	33	40	28	211	43	31	–
1757574 (eA*e[5mC]eTeT*eG*eG*dT*dG[ms]dA[ms]dA[ms]dT*d[5mC]*dT*dT*dT*dA[ms]kT*kT*eA*eA; antisense) [Compound 1757574]	–	–	–	–	–	–	–	–	–	–	–	55	22	43	32	44	21	60	68	APOE RNA (% UTC) [1, 14]: 90 % UTC; APOE RNA (% UTC) [1, 15]: 80 % UTC; APOE RNA (% UTC) [1, 16]: 85 % UTC; APOE RNA (% UTC) [1, 17]: 78 % UTC; APOE RNA (% UTC) [1, 18]: 93 % UTC; APOE RNA (% UTC) [1, 19]: 66 % UTC; APOE RNA (% UTC) [1, 20]: 47 % UTC; APOE RNA (% UTC) [1, 21]: 28 % UTC; APOE RNA (% UTC) [1, 22]: 19 % UTC; APOE RNA (% UTC) [1, 23]: 20 % UTC; IC50 [1, 24]: 1.17 µM
1778115: modified oligonucleotide complementary to human APOE RNA (eA*e[5mC]eTeTkGkG*dT*dG[ms]dA[ms]dA*dT*d[5mC]*dT*dT*dT*dA[ms]eTeT*eA*eA; antisense) [compound 1778115]	76	75	73	85	72	43	38	29	32	6	0.53	44	28	37	66	46	27	77	28	–
1778129: modified oligonucleotide complementary to human APOE RNA (eA*e[5mC]eTeTeG*kG*dT*dG[ms]dA[ms]dA*dT*d[5mC]*dT*dT*dT*dA[ms]kT*kT*eA*eA; antisense) [compound 1778129]	124	105	110	77	60	44	29	9	14	2	0.41	34	14	25	47	19	9	52	24	–
1778114: modified oligonucleotide complementary to human APOE RNA (eA*e[5mC]eTeTkG*kG*dT*dG[ms]dA[ms]dA*dT*d[5mC]*dT*dT*dT*dA[ms]eTeT*eA*eA; antisense) [compound 1778114]	78	82	78	78	67	45	42	20	11	7	0.43	52	27	37	57	47	32	56	26	–
1778127: modified oligonucleotide complementary to human APOE RNA (eA*e[5mC]eTeTkGkG*dT*dG[ms]dA[ms]dA*dT*d[5mC]*dT*dT*dT*dA[ms]kTeT[ms]eA[ms]eA; antisense) [compound 1778127]	98	88	85	82	55	31	30	16	14	4	0.31	48	25	32	53	28	14	57	43	–
1757571 (eA*e[5mC]eTeT*eG*kG*dT*dG[ms]dA[ms]dA[ms]dT*d[5mC]*dT*dT*dT*dA[ms]eT*eT*eA*eA; antisense) [Compound 1757571]	–	–	–	–	–	–	–	–	–	–	–	47	26	48	35	66	33	53	73	APOE RNA (% UTC) [1, 14]: 68 % UTC; APOE RNA (% UTC) [1, 15]: 86 % UTC; APOE RNA (% UTC) [1, 16]: 98 % UTC; APOE RNA (% UTC) [1, 17]: 62 % UTC; APOE RNA (% UTC) [1, 18]: 103 % UTC; APOE RNA (% UTC) [1, 19]: 38 % UTC; APOE RNA (% UTC) [1, 20]: 26 % UTC; APOE RNA (% UTC) [1, 21]: 24 % UTC; APOE RNA (% UTC) [1, 22]: 14 % UTC; APOE RNA (% UTC) [1, 23]: 11 % UTC; IC50 [1, 24]: 0.55 µM
